Values of other authors as cited in PMC11337105, “Identification of 2-(N-aryl-1,2,3-triazol-4-yl) quinoline derivatives as antitubercular agents endowed with InhA inhibitory activity” (Frontiers in Chemistry, 2024).
≈ marks a conversion by molar mass, not a printed value.

Test system: MTB
Details: MTB H37Rv; ref Boechat et al., 2011; cited from earlier work

## O=C(N/N=C/c1cn(-c2ccc(Cl)cc2)nn1)c1ccncc1 [compound VI]
  MIC, MTB H37Rv strain: 0.62 µg/mL (≈ 1.9 µM)
